The record followed here is patent publication US20240116994A1, “Peptides And Use Thereof For Diagnosing And Treating Antiphospholipid Syndrome” (UNIVERSITE DE GENEVE, priority 2021, published 2024).

Where no end group is shown, it is not given here. The star is where a group is joined. Biotin = O=C1N[C@H]2[C@H](CS[C@H]2CCCCC(=O)*)N1

Test [1] has as its system aPL from a pool of 13 Human patients. Kind of test: Surface plasmon resonance, aPL flown over biotin-peptide-coated SA chip (BIAcore X100). It counts as binding. As to conditions: for sustained interaction / stability of binding with aPL (shape of SPR curves): stabilization curves. Here is the method: The kinetics and affinity of protein-protein and protein-lipid interactions were determined using a BIAcore X100 instrument. 1 mg/ml of biotin-tagged peptide (ligand) was immobilized using a sensor chip SA (GE Healthcare) surface, whereas aPL from a pool of 13 Human patients were flown as analyte. The first flow cell of the sensor chip was used as a control surface (no protein), whereas the second flow cell was employed as the active surface. A range of dilution of aPL analytes prepared in the same buffer was injected on both flow cell surfaces at a flow rate of 30 μl/min. Association and dissociation times for each protein injection were set at 90 and 120 s, respectively. In all cases, sensorgrams were obtained from three different dilutions of aPL.
(§1) The de Groot's research group has pointed at the importance of hydrophobic character of the plate during coating of R39-R43 epitope. In order to abrogate of the plate-dependent aPL binding, the Ia-1 and Ib-1 peptides as well as the R39-R43 with a biotin at their N-terminal were synthetized and coated a streptavidin plate. In this configuration, the different peptides are flag oriented in the space preventing any interaction with the plate. It was thus observed that the flag-type orientation of R39-R43-biot leads to 8.52×more interaction with aPL while they show 9.63×more binding for Ib-1-biot presenting the same position. […] The surface plasmon resonance (SPR) technique is used to determine the relative avidity of aPL for R39-R43-biot and Ib-1-biot. The interaction between aPL and immobilized R39-R43-biot or Ib-1-biot is monitored by flowing various concentrations of aPL over a R39-R43-biot- or Ib-1-biot-coated chip surface (FIG. 1C). Through SPR experiments, it appears that aPL avidity for Ib-1-biot presents a resonance unit (RU) of 51.49 at 1/1,000 of dilution and a RU of 27.61 at 1/10,000 of dilution while, at the same dilution, it present a RU of 27.36 and a RU of 17.99 with R39-R43-biot, respectively (FIG. 1C). However, at higher concentrations, the peptides seems to show no differences in the interactions with aPL. […] Considering that IgG valency, it was decided to generate a dimeric Ib-1-biot peptide (Ib-1-biot-2x). This new polypeptide carries thus two optimized epitopes which have the opportunity to interact with two Fab fragment present on aPL. […] At higher concentration, i.e dilution of 1/100, the avidity for dimeric peptide is 28×more than for the monomeric (FIG. 1D).
It was performed a peptide substitution scan of Ib-1-biot VSRGGMRKKKKPLTG (SEQ ID NO: 6) carrying the optimized epitope Ib-1-biot and based on an exchange of the underlined amino acid positions with the 20 main amino acids. The resulting peptide microarrays contained 140 different peptides. It was observed that the peptide substitution of the position n° 1, 2, 12 and 15 have significant influences on the ability to interact with aPL from patients 1, 2, 3, 4 and, in particular, form the plasma pool. Indeed, the substitution of the position 1, 12 or 15 by an Arginine (R) or a Lysine (K) increases the avidity of the peptide for all aPL from patients. […] In this context, the enhancement relative to Ib-1.0-biot-2x of identified peptides was evaluated (FIG. 2A). […] However, streptavidin being known to produce unspecific binding, it was used the ratio between aPL and a pool of human plasma as control (B/B0) (FIG. 2B, upper panel). This representation therefore allows to distinguish the real levels of interactions. It was then performed a dilution assay from dilution of 1/100 to 1/1,200,000 and it was observed relevant differences between the different identified peptides. By comparison of area under the curve (AUC), it was possible to detect the most prone-interacting peptide with aPL. Thus, the peptide IIa-8.0-biot-2x obtained the higher AUC (FIG. 2B, bottom panel). […]

Test [2] deals with aPL (pool from APS patients). Kind of test: Determination of aPL by ELISA on coated peptides / biotinylated peptides (custom immunoassay). In kind it is binding, Human. Conditions: for increase fold mean of aPL interaction relative to β2GP1: ELISA, 1/10 dilution of aPL pool, reference reduced β2GP1 (FIG. 1A). Here is the method:
Determination of aPL by ELISA—MaxiSorp™ 96 well plates (Nunc) or Streptavidin plate (Thermofisher) were coated with 10 μg/ml recombinant domains of β2GP1, peptides or biotinylated-peptide prior to incubation with aPLA. Secondary anti-human antibodies conjugated to IR800CW (Rockland) or HRP were used. Protein- or peptide-bound antibodies were detected and quantified by the Odyssey system (Li-Cor Biosciences) or absorbance in optical densities (OD) was determined at 405 nm (molecular Devices™ Filtermax).
as §1
It was performed a peptide substitution scan of Ib-1-biot VSRGGMRKKKKPLTG (SEQ ID NO: 6) carrying the optimized epitope Ib-1-biot and based on an exchange of the underlined amino acid positions with the 20 main amino acids. The resulting peptide microarrays contained 140 different peptides. It was observed that the peptide substitution of the position n° 1, 2, 12 and 15 have significant influences on the ability to interact with aPL from patients 1, 2, 3, 4 and, in particular, form the plasma pool. Indeed, the substitution of the position 1, 12 or 15 by an Arginine (R) or a Lysine (K) increases the avidity of the peptide for all aPL from patients. […] In this context, the enhancement relative to Ib-1.0-biot-2x of identified peptides was evaluated (FIG. 2A). […] However, streptavidin being known to produce unspecific binding, it was used the ratio between aPL and a pool of human plasma as control (B/B0) (FIG. 2B, upper panel). This representation therefore allows to distinguish the real levels of interactions. It was then performed a dilution assay from dilution of 1/100 to 1/1,200,000 and it was observed relevant differences between the different identified peptides. By comparison of area under the curve (AUC), it was possible to detect the most prone-interacting peptide with aPL. Thus, the peptide IIa-8.0-biot-2x obtained the higher AUC (FIG. 2B, bottom panel). To formally quantify the ability of aPL to interact with IIa-8.0-biot-2x, it was monitored by flowing various concentrations of aPL over a IIa-8.0-biot-2x-coated chip surface (FIG. 2C). […] In FIG. 2C, bottom panel, it can be appreciated more precisely the improvement of the quality of interactions. […]

Test [3] relates to binding of aPL to IIa-8.0-biot-2x. Kind of test: Inhibition experiments: remaining reactivity of pre-treated aPL on IIa-8.0-biot-2x ELISA. Conditions: aPL pool sera preincubated 90 min at RT with 1, 10 and 10011 g/ml peptide. More on the design: species or system Human. Here is the method:
To examine the functional ability of IIa-5.0, IIa-7.1, IIa-8.0 peptides and R39-R43 to inhibit the activity of pool of aPL isolated from APS patients, the remaining reactivity of aPL was evaluated for IIa-8.0-biot-2x which had previously been treated with increasing concentration of peptides. […] The flag-type orientation prevents potential interactions with the plate or with itself, particularly in solution. Streptavidin magnetic beads associated with IIa-5.0-biot-2x, IIa-7.1-biot-2x and Ha-8.0-biot-2x peptides have been generated. aPL was treated with increasing concentrations of beads before to measure the remaining binding activity of aPL on IIa-8.0-biot-2x ELISA (FIG. 7C).
To assess the ability of IIa-5.0-2x, IIa-7.1-2x and IIa-8.0-2x to inhibit in vitro the binding of aPL to IIa-8.0-biot-2x. aPL pool sera were preincubated for 90 min at RT with increasing concentrations (1, 10 and 10011 g/ml) of monomeric, dimeric IIa-5.0, IIa-7.1 and IIa-8.0 peptides and of IIa-5.0-biot-2x, IIa-7.1-biot-2x and IIa-8.0-biot-2x-associated beads (15, 30 and 60 pmol). 120 pmol correspond to the amount of IIa-8.0-biot-2x coated in well of Streptavidin Coated High Capacity Plates 96 well plates (Thermofisher). After the pre-incubation time, the serum was added anti-b2GP1 IgG (anti-IIa-8.0-2x) ELISA according to the protocol.

Where [4] appears, read: aPL at 1/1,000 of dilution (FIG. 1C).
Setting [5] is: aPL at 1/10,000 of dilution (FIG. 1C).
Setting [6] is: after a dilution of 100× of aPL (1/1,000) (FIG. 1B).
Where [7] appears, read: streptavidin plate, N-terminal biotin, 1/10 dilution of aPL pool (FIG. 1B).

For “Ib-1-biot: monomeric Ib-1 peptide with a biotin at its N-terminal (Biotin-VSRGGMRKKKKPLTG)”, the “resonance unit (RU), aPL avidity” value came out at 51.49 RU in test [1] (setting [4]) and 27.61 RU in test [1] (setting [5]). The “sustained interaction / stability of binding with aPL (shape of SPR curves)” value in test [1] is on record as “neither R39-R43-biot nor Ib-1-biot have sustained interaction with aPL”. In addition, the figures for the “interaction with aPL of flag-oriented biotinylated peptide versus nude peptide” value in test [2] (setting [6]) and in test [2] (setting [7]) were 4.3 × and 9.63 ×, respectively.

For “R39-R43-biot: R39-R43 peptide with a biotin at its N-terminal (Biotin-VSRGGMRKFICPLTG) [reference compound]”, the “resonance unit (RU), aPL avidity” value was 27.36 RU in test [1] (setting [4]) and 17.99 RU in test [1] (setting [5]). For the same molecule, in test [1], the “sustained interaction / stability of binding with aPL (shape of SPR curves)” value is on record as “neither R39-R43-biot nor Ib-1-biot have sustained interaction with aPL”. In addition, the “interaction with aPL of flag-oriented biotinylated peptide versus nude peptide” value is listed as 2.83 × in test [2] (setting [6]) and 8.52 × in test [2] (setting [7]).

On to RSRGGMRKRKKPLTG [IIa-8.0], for which, in test [3], the “inhibition of aPL binding to IIa-8.0-biot-2x ELISA by peptide in solution” value (shortened to “inhibition of aPL binding”) is reported as “prevents their further binding to IIa-8.0-biot-2x ELISA”.

As for “VSRGGMRKFICPLTG [R39-R43, reference compound]”, the “inhibition of aPL binding” value in test [3] was “failed to significantly inhibit”. In addition, the “increase fold mean of aPL interaction relative to β2GP1” value in test [2] is given as “same ability to interact with aPL than β2GP1”.

“VSRGGMRKFIKPLTG [Ia-1, corresponding to the first substitution scan]”: the “increase fold mean of aPL interaction relative to β2GP1” value in test [2] came out at 3.47 fold.

Take “VSRGGMRKKKKPLTG [Ib-1, corresponding to the second substitution scan]”: the “increase fold mean of aPL interaction relative to β2GP1” value in test [2] came out at 5.5 fold.

As to VSRGGMRKRKKKKTG [IIa-7.1], the “inhibition of aPL binding” value in test [3] is listed as “prevents their further binding to IIa-8.0-biot-2x ELISA”.

With VSRGGMRKRKKPLTK [IIa-5.0], the “inhibition of aPL binding” value in test [3] is “prevents their further binding to IIa-8.0-biot-2x ELISA”.

B1: Dom MI: recombinant Domain I-II of β2GP1 (protein)
chain: GRTCPKPDDLPFSTVVPLKTFYEPGEEITYSCKPGYVSRGGMRKFICPLTGLWPINTLKCTPRVCPFAGILENGAVRYTTFEYPNTISFSCNTGFYLNGADSAKCTEEGKWSPELPVCAP
Consider B1, for which the “increase fold mean of aPL interaction relative to β2GP1” value in test [2] is “same ability to interact with aPL than β2GP1”.
